How the values were obtained:
[1] = tested on: human DMD exon 50 GFP based reporter; test: BioMol high throughput screen in Ex50-GFP reporter C2C12 myoblasts, with or without AON6; assay type: cell-based, mouse; conditions: With AON6 screen, compound 10 uM
Excerpt: Small molecule libraries were screened for exon skipping promoting activity in C2C12 myoblasts expressing a human DMD exon 50 GFP based reporter. […] In the reporter cells, successful skipping of DMD exon 50 creates in-frame GFP expression. Number of cells that were fluorescing was quantified using a high content cell imager in 384 well plate format. Fluorescence was normalized by subtracting the average fluorescence value of the carrier (DMSO) controls. Fluorescence readouts are plotted for the BioMol library screen both with (+AO) and without (−AO) from Source Plate 1 (containing the Orphan Ligand, Ion Channel, Enzyme Inhibitor, and Endocannabanoid libraries, n=300). Each point for the DMSO controls, all compounds, and the Top 5% from Source Plate 1 (n=15) represents the average normalized fluorescence of 6 replicates in the −AO screen and 3 replicates in the +AO screen. […] Individual points for dantrolene are plotted with the bold horizontal line indicating the median. The short horizontal lines interspersed among the data points indicate 1, 2, and 3 standard deviations away from the DMSO treatment mean fluorescence.
In contrast to prior screens aimed at identifying small molecules which impact exon skipping, our screen is unique at least because it relies on robust quantitation of a skipping reporter in the context of a muscle lineage cell in the presence and absence of suboptimal AO. These screens were performed using a mouse muscle cell line (C2C12) expressing a human DMD exon 50 GFP based reporter selected to minimize experimental variation and sensitivity in the context of an automated and quantitative fluorescent scanning system.
AO was added prior to small molecule incubation in an effort to identify molecules that facilitate AO skipping rather than AO delivery. The fluorescence induced by each compound was normalized to a vehicle controls per plate to correct for plate to plate variability. Fluorescence was averaged across replicate plates (n=6 without AO screen, n=3 with AO screen). Compounds were rank ordered based on average intensity of fluorescence and difference between the without AO and with AO screen (FIG. 1 and Table 2).
(§1) A stable clone was generated from C2C12 cells transfected with a human exon 50 DMD GFP reporter (ex50GFP) that has been previously described. Ex50GFP reporter myoblasts were seeded into uncoated 384 well plates and were incubated for 4 hours either with or without 300 nM of 2′-O-methyl phosphorothioate AON6 [5′[…] 3′ (SEQ ID NO:1)] targeting the human exon 50 splice donor site. Cells were transfected with AON6 using the FUGENE (Roche) transfection reagent per manufacturer's instructions. Following AON6 incubation, each component of the BioMol library (n=503) was screened at 10 uM concentration with a final concentration of the DMSO carrier being 1%. Forty-eight hours later fluorescence was measured using the MicroXpress high content imager and analyzed using MetaXpress. Immediately preceding imaging, DNA was stained with Hoescht for 30 min. The BioMol screen without AO (−AO) was performed in 6 replicates, and the with AO (+AO) screen was performed in 3 replicates. For the screen analysis raw fluorescence values were normalized to carrier controls present on each plate by subtracting the values. Negative fluorescence values were set to 0. The data from each compound were averaged from all replicates. For secondary screening by 12 or 16 point dose response, Ex50GFP myoblasts or C2C12 cells without the reporter were seeded on uncoated 384 well plates. A sub-optimal dose of AON6 targeting DMD exon 50 was added for 4 hours.

[2] = tested on: human DMD exon 50 GFP based reporter; test: Secondary screening, 12 or 16 point titrations on the DMD exon 50 reporter cell line with or without AON6; assay type: cell-based, mouse
Procedure: 12 or 16 point titrations of compounds were added to the Ex50-GFP and C2C12 myoblasts either with or without AON6.
as §1, with “hours. Following the 4 hour incubation, a compound dilution was added (beginning at 100 uM with 1:1 dilutions) for either 12 or 16 points. After a 48 hour incubation with compounds, DNA was stained with Hoescht, and fluorescence determined using the high content imager and analyzed with MetaXpress.” for “hours.”

[3] = tested on: Ca2+-ATPase of sarcoplasmic reticulum; conditions: at 0.5-2 μM ATP; cited from earlier work
DMD exon 31 = conditions: cited from earlier work
[4] = cited from earlier work
[5] = 48 h, normalized to DMSO carrier controls

CYCLOPIAZONIC ACID
Fluorescence Plate 1 ([1]; 48 h, fluorescence normalized by subtracting DMSO carrier controls): 29.57
Fluorescence Plate 2 [1, 5]: 33.40
Fluorescence Plate 3 [1, 5]: 17.24
Average Fluorescence (n = 3) ([1]; average of 3 replicate plates): 26.74
increase in fluorescence in the Ex50-GFP+AO compared to the reporter line without AO ([2]; 12 or 16 point titrations from 100 uM, positivity criterion (FIG. 5 legend: >10%)): 10%
dose response in Ex50-GFP reporter ([2]; 12 or 16 point titrations with AON6): evidence of a dose response
amount completely inhibiting the enzyme [3]: Induces the release of intracellular stored Ca2+, without increasing IP3 levels, via inhibition of endoplasmic reticulum Ca2+− ATPase. It is a highly specific inhibitor of the Ca2+− ATPase of sarcoplasmic reticulum, completely inhibiting the enzyme at 6-8 nmol/mg protein (at 0.5-2 μM ATP).

CCN1/C(=C/C(C)=O)Sc2ccc(OC)cc21 [TG003]
mutant exon 31 skipping (DMD exon 31): increased mutant exon 31 skipping

O=C1CN(/N=C/c2ncc(-c3ccc(Br)cc3)o2)C(=O)N1 [azumolene]
water solubility relative to dantrolene [4]: more water soluble than dantrolene
